According to the supplement of paper PMC10307832:

What was measured:
Assay in all cases: relative viability (nuclei count vs DMSO), 5 days (fraction); higher = more cells survive
[1] = compound: c1ccc2c(CCNc3ccc(Nc4ccncc4)cc3)c[nH]c2c1 [Serdemetan] + CC(=O)Nc1cccc(-n2c(=O)n(C3CC3)c(=O)c3c(Nc4ccc(I)cc4F)n(C)c(=O)c(C)c32)c1 [Trametinib] (partner 0.02 µM)
In short: (§1)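 Lung cancer cell lines in 1536-well plates got either a single drug or a fixed anchor-drug dose together with five library-drug doses (not always all listed) in √10 steps, by pin tool, on the day after seeding. Nuclei were counted after 5 days, and relative viability is the treated-to-vehicle ratio of nuclei counts. Values are medians of duplicate plates.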

[2] = compound: C1CC(C2=C(C1)C3=C(N2)C=CC(=C3)Cl)C(=O)N [Selisistat] + Cc1nc(Nc2ncc(C(=O)Nc3c(C)cccc3Cl)s2)cc(N2CCN(CCO)CC2)n1 [Dasatinib] (partner 0.075 µM)
In short: as §1

[3] = compound: C1CC(C2=C(C1)C3=C(N2)C=CC(=C3)Cl)C(=O)N [Selisistat] + CC(C)C[C@H](NC(=O)[C@H](Cc1ccccc1)NC(=O)c1cnccn1)B(O)O [Bortezomib] (partner 0.002 µM)
In short: as §1

[4] = compound: c1ccc2c(CCNc3ccc(Nc4ccncc4)cc3)c[nH]c2c1 [Serdemetan] + COc1cc2c(Oc3ccc(NC(=O)C4(C(=O)Nc5ccc(F)cc5)CC4)cc3F)ccnc2cc1OCCCN1CCOCC1 [Foretinib] (partner 0.25 µM)
In short: as §1

Row | Cell Line | relative viability ([1]; first compound 0.04 µM) | relative viability ([1]; first compound 0.1265 µM) | relative viability ([1]; first compound 0.4 µM) | relative viability ([1]; first compound 1.265 µM) | relative viability ([1]; first compound 4 µM) | relative viability ([2]; first compound 0.4 µM) | relative viability ([2]; first compound 1.265 µM) | relative viability ([2]; first compound 4 µM) | relative viability ([2]; first compound 12.65 µM) | relative viability ([2]; first compound 40 µM) | relative viability ([3]; first compound 0.4 µM) | relative viability ([3]; first compound 1.265 µM) | relative viability ([3]; first compound 4 µM) | relative viability ([3]; first compound 12.65 µM) | relative viability ([3]; first compound 40 µM) | relative viability ([4]; first compound 0.04 µM) | relative viability ([4]; first compound 0.1265 µM) | relative viability ([4]; first compound 0.4 µM) | relative viability ([4]; first compound 1.265 µM) | relative viability ([4]; first compound 4 µM)
1 | A-427 | 0.699 | 0.732 | 0.877 | 0.698 | 0.506 | 0.744 | 0.657 | 0.584 | 0.752 | 0.772 | 1.02 | 0.981 | 1.01 | 1.02 | 0.952 | 1.01 | 0.933 | 1.1 | 0.778 | 0.469
2 | NCI-H2347 | 0.286 | 0.253 | 0.289 | 0.259 | 0.25 | 0.343 | 0.299 | 0.171 | 0.344 | 0.31 | 0.772 | 1.11 |  | 0.907 | 0.831 | 1.08 | 0.831 | 0.89 | 0.954 | 0.604
3 | NCI-H1355 | 0.411 | 0.478 | 0.367 | 0.394 | 0.374 | 0.684 | 0.688 | 0.519 | 0.65 | 0.789 | 1.18 | 1.21 |  | 1.13 | 1.35 | 0.963 | 0.955 | 0.798 | 0.907 | 0.66
4 | NCI-H358 | 0.135 | 0.144 | 0.12 | 0.0947 | 0.109 | 0.201 | 0.158 | 0.114 | 0.235 | 0.226 |  |  |  |  |  | 0.641 | 0.773 | 0.732 | 0.549 | 0.477
5 | PC-3 [JPC-3] | 0.708 | 0.634 | 0.663 | 0.67 | 0.684 | 0.998 | 0.976 | 0.884 | 0.975 | 0.976 | 0.796 | 0.788 | 0.828 | 0.81 | 0.885 | 0.98 | 1 | 0.946 | 1.09 | 1.06
6 | NCI-H2228 | 0.564 | 0.523 | 0.327 | 0.115 | 0.172 | 0.68 | 0.577 | 0.449 | 0.536 | 0.557 | 1.01 | 1.01 | 0.971 | 0.923 | 1 | 0.755 | 0.518 | 0.784 | 0.303 | 0.258
7 | HOP-62 | 0.353 | 0.319 | 0.343 | 0.314 | 0.28 | 0.677 | 0.626 | 0.507 | 0.642 | 0.664 | 0.837 | 1.08 | 0.867 | 0.624 | 0.883 | 1.04 | 1.08 | 1.1 | 0.796 | 0.693
8 | HARA | 0.529 | 0.658 | 0.649 | 0.42 | 0.641 | 0.25 | 0.299 | 0.202 | 0.166 | 0.264 | 1.12 | 1.19 | 1.14 | 1.15 | 1.06 | 0.84 | 0.903 | 0.871 | 0.585 | 0.452
